Experimental data from the supplement of paper PMC11061612.

Tests used:
Experiment in all cases: combination Emax (second highest fraction inhibited in the dose matrix, 72 h); higher = more inhibition; extreme values may be limits of the assay
[1] = test system: VCaP (Prostate Carcinoma)
Method in brief: (§1)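 After 24 hours at 37°C and 5% CO2 in 1536-well plates, cells in DMEM/F12 or RPMI plus 10% FBS received two-drug dose matrices for 72 hours. Viability came from CellTiter-Glo 2.0 luminescence and was scaled as inhibition, anchored at 0 by vehicle wells and at 1 by blank wells. Combination Emax is taken as the second-highest inhibition in the matrix, and Bliss excess as the observed combination effect less EA + EB − EA·EB, with EA and EB the single-agent effects.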

[2] = test system: CAS-1 (Glioblastoma)
Method in brief: as §1

[3] = test system: SISO (Cervical Carcinoma)
Method in brief: as §1

[4] = test system: TT (Thyroid Gland Carcinoma)
Method in brief: as §1

[5] = test system: SK-MG-1 (Low Grade Glioma)
Method in brief: as §1

[6] = test system: NCI-H1581 (Non-Small Cell Lung Carcinoma)
Method in brief: as §1

[7] = test system: GI-ME-N (Neuroblastoma)
Method in brief: as §1

[8] = test system: U-2-OS (Osteosarcoma)
Method in brief: as §1

[9] = test system: NCI-H1650 (Lung Adenocarcinoma)
Method in brief: as §1

[10] = test system: LN-405 (Glioblastoma)
Method in brief: as §1

[11] = test system: COLO-824 (Breast Carcinoma)
Method in brief: as §1

[12] = test system: PA-1 (Ovarian Carcinoma)
Method in brief: as §1

[13] = test system: CAL-29 (Bladder Carcinoma)
Method in brief: as §1

[14] = test system: JSC-1 (B-Cell Non-Hodgkin's Lymphoma)
Method in brief: as §1

[15] = test system: NY (Osteosarcoma)
Method in brief: as §1

[16] = test system: CCK-81 (Colorectal Carcinoma)
Method in brief: as §1

[17] = test system: A549 (Lung Adenocarcinoma)
Method in brief: as §1

[18] = test system: CAPAN-2 (Pancreatic Carcinoma)
Method in brief: as §1

[19] = test system: OS-RC-2 (Kidney Carcinoma)
Method in brief: as §1

[20] = test system: ONS-76 (Other Solid Carcinomas)
Method in brief: as §1

Row | Compound | combination Emax [1] | combination Emax [2] | combination Emax [3] | combination Emax [4] | combination Emax [5] | combination Emax [6] | combination Emax [7] | combination Emax [8] | combination Emax [9] | combination Emax [10] | combination Emax [11] | combination Emax [12] | combination Emax [13] | combination Emax [14] | combination Emax [15] | combination Emax [16] | combination Emax [17] | combination Emax [18] | combination Emax [19] | combination Emax [20]
1 | CCN(CCO)CCCOc1ccc2c(Nc3cc(CC(=O)Nc4cccc(F)c4)[nH]n3)ncnc2c1 [AZD2811] + C=CCn1c(=O)c2cnc(Nc3ccc(N4CCN(C)CC4)cc3)nc2n1-c1cccc(C(C)(C)O)n1 [AZD1775] (first compound max 1 µM, partner max 1 µM) | 0.558 | 0.496 | 0.568 | 0.365 | 0.455 | 0.688 | 0.29 | 0.628 | 0.346 | 0.199 | 0.813 | 0.767 | 0.633 | 0.809 | 0.527 | 0.849 | 0.599 | 0.299 | 0.305 | 0.607
2 | Cc1cc2ncnn2cc1Nc1ncc2c(n1)n(C1CCOCC1)c(=O)n2C [AZD7648] + CCN(CCO)CCCOc1ccc2c(Nc3cc(CC(=O)Nc4cccc(F)c4)[nH]n3)ncnc2c1 [AZD2811] (first compound max 10 µM, 7x7, partner max 1 µM) | 0.314 | 0.427 | 0.265 | 0.611 | 0.461 | 0.499 | 0.207 | 0.229 | 0.287 | 0.186 | 0.762 | 0.315 | 0.301 | 0.486 | 0.242 | 0.291 | 0.718 | 0.239 | 0.287 | 0.398
3 | CC1(C)CCC(CN2CCN(c3ccc(C(=O)NS(=O)(=O)c4ccc(NCC5CCOCC5)c([N+](=O)[O-])c4)c(Oc4cnc5[nH]ccc5c4)c3)CC2)=C(c2ccc(Cl)cc2)C1 [Venetoclax] + CCN(CCO)CCCOc1ccc2c(Nc3cc(CC(=O)Nc4cccc(F)c4)[nH]n3)ncnc2c1 [AZD2811] (first compound max 1 µM, 7x7, partner max 1 µM) | 0.226 | 0.271 | 0.231 | 0.652 | 0.464 | 0.266 | 0.186 | 0.257 | 0.207 | 0.276 | 1 | 0.527 | 0.264 | 0.332 | 0.616 | 0.199 | 0.461 | 0.204 | 0.232 | 0.698
4 | CC(=O)c1c(C)c2cnc(Nc3ccc(N4CCNCC4)cn3)nc2n(C2CCCC2)c1=O [Palbociclib] + CC1(C)CCC(CN2CCN(c3ccc(C(=O)NS(=O)(=O)c4ccc(NCC5CCOCC5)c([N+](=O)[O-])c4)c(Oc4cnc5[nH]ccc5c4)c3)CC2)=C(c2ccc(Cl)cc2)C1 [Venetoclax] (first compound max 10 µM, 7x7, partner max 1 µM) | 0.164 | 0.274 | 0.0637 | 0.295 | 0.282 | 0.291 | 0.196 | 0.142 | 0.131 | 0.17 | 0.844 | 0.779 | 0.0999 | 0.506 | 0.0868 | 0.106 | 0.64 | 0.0393 | 0.155 | 0.364
5 | CN(C)CCCOc1ccc(-c2ccc3ncc4c(c3c2)n(C2CCOCC2)c(=O)n4C)cn1 [AZD0156] + C=CCn1c(=O)c2cnc(Nc3ccc(N4CCN(C)CC4)cc3)nc2n1-c1cccc(C(C)(C)O)n1 [AZD1775] (first compound max 1 µM, partner max 1 µM) | 0.553 | 0.464 | 0.566 | 0.271 | 0.525 | 0.331 | 0.321 | 0.734 | 0.385 | 0.134 | 0.644 | 0.789 | 0.642 | 0.868 | 0.555 | 0.903 | 0.317 | 0.39 | 0.326 | 0.675
6 | COc1nnc2ccc(N3CCC(c4ccc(OCCN5CCN(C)C(=O)[C@H]5C)cc4)CC3)nn12 [AZD5153] + C=CCn1c(=O)c2cnc(Nc3ccc(N4CCN(C)CC4)cc3)nc2n1-c1cccc(C(C)(C)O)n1 [AZD1775] (first compound max 1 µM, partner max 1 µM) | 0.767 | 0.658 | 0.65 | 0.563 | 0.618 | 0.866 | 0.393 | 0.635 | 0.477 | 0.535 | 0.863 | 0.973 | 0.524 | 0.901 | 0.567 | 0.869 | 0.885 | 0.328 | 0.486 | 0.601
